For six compounds, Activity results are on record in ChEMBL document CHEMBL1144600, “Efficient synthesis and biological evaluation of omega-oxygenated analogues of vitamin K2: study of modification and structure-activity relationship of vitamin K2 metabolites” (2007).

In this test the test system is HL-60. The experiment in a line: Apoptosis inducing activity in human HL60 cells at 10 uM after 74 hrs. It counts as functional.

Molecules are shown by their SMILES. Activity calls are given as the source filed them. The rule behind the calls is not given here.

As to `CC1=C(C/C=C(\C)CC/C=C(\C)C=O)C(=O)c2ccccc2C1=O`, the outcome was inactive.
Take `CC1=C(C/C=C(\C)CC/C=C(\C)CC/C=C(\C)C=O)C(=O)c2ccccc2C1=O`: the result was inactive.
Then `CC1=C(C/C=C(\C)CC/C=C(\C)CO)C(=O)c2ccccc2C1=O`, with “inactive”; and `CC1=C(C/C=C(\C)CC/C=C(\C)CC/C=C(\C)CO)C(=O)c2ccccc2C1=O`, with 75%.
Take `CC1=C(C/C=C(\C)CC/C=C(\C)CC/C=C(\C)CC/C=C(\C)C=O)C(=O)c2ccccc2C1=O`: the outcome was inactive.
`CC1=C(C/C=C(\C)CC/C=C(\C)CC/C=C(\C)CC/C=C(\C)CO)C(=O)c2ccccc2C1=O` showed an Activity of 15%.
